The target in experiment [1] is T1, rat Nectin-4 (Rattus norvegicus, UniProt D3ZET1).
T1 construct: extracellular domain using biotinylated human
Put plainly: Multicomponent SPR: Nectin-4 binding to complex captured on biotinylated human CD137, rat Nectin-4. An excerpt: To understand whether the binding of BCY11863 to Nectin-4 was altered in the context of the ternary complex, i.e. when also bound to CD137, a multicomponent SPR binding assay was developed. BCY11863 was first captured to human CD137 immobilized on the SPR chip surface and then Nectin-4 from different species were passed over the chip to determine their affinities to the captured BCY11863 (see FIG. 21C). The affinities to Nectin-4 were generally maintained in the presence of CD137 binding as shown below: […]

The target in experiment [2] is CD137 (Homo sapiens, UniProt Q07011). Put plainly: CD137 reporter assay (Promega, Jurkat cells) in co-culture with EphA2-expressing tumor cells (A549, PC3, HT29). Format: cell-based. On the set-up: host or cells: Jurkat reporter cells. The conditions noted are these: for EC50: EC50 (nM); for EC50 / Emax: individual replicates. The method, boiled down:
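Promega CD137 luciferase reporter Jurkat cells co-cultured with tumor cells (RKO for PD-L1; A549, PC3, HT29 for EphA2) and serially diluted test articles in RPMI + 1% FBS, 6 h at 37° C. Bio-Glo luminescence as fold change over cells alone; log(agonist)-response fit gives EC50 (nM) and max fold induction.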
In general terms: In a reporter assay the amount or activity of a reporter protein is the signal.

Several values for one entry are separate records, joined by “and”; a condition that tells them apart may be missing. Identical values can stand only once. Starred links: 1 amine or outer side, 2 acyl side, 3 side chain; linkers in the order of their positions; H or OH if unused. Positions of bridges follow the written chain, without caps; N, C: chain ends. Non-standard residues stand in square brackets, D forms with d. Chains are numbered I, II in the order given. X1 = O=C(CCOCCOCCOCCN(CCOCCOCCOCCn1cc(CCC(=O)[*:2])nn1)CCOCCOCCOCCn1cc(CCC(=O)[*:3])nn1)[*:1]; TATA = O=C(CC[*:1])N1CN(C(=O)CC[*:2])CN(C(=O)CC[*:3])C1; d1Nal = N[C@H](Cc1cccc2ccccc12)C(=O)O; Hyp = O=C(O)[C@@H]1C[C@@H](O)CN1; hArg = N=C(N)NCCCC[C@H](N)C(=O)O; tBuAla = CC(C)(C)C[C@H](N)C(=O)O; Nle = CCCC[C@H](N)C(=O)O

CD137, sequence (Q07011 24-255): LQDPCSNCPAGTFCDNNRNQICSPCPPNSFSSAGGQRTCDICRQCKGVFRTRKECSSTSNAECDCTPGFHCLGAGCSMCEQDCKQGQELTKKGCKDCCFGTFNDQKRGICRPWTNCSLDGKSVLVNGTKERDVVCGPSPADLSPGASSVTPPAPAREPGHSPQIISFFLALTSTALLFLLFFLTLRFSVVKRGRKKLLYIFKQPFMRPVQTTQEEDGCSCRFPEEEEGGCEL
T1 sequence (D3ZET1 31-509): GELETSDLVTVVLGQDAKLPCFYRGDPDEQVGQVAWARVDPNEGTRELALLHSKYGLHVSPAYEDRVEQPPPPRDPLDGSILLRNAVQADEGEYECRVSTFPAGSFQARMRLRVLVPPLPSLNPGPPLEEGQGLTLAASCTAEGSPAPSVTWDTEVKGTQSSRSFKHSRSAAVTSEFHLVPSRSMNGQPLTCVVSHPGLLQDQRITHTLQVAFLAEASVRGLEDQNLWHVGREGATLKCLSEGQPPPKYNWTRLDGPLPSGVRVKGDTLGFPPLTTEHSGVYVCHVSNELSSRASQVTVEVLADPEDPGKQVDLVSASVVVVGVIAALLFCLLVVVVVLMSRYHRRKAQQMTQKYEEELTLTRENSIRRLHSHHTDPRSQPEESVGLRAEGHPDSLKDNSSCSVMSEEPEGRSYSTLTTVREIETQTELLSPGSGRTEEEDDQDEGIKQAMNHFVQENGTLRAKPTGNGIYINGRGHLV
T1 sequence (Q07011 24-186 partner): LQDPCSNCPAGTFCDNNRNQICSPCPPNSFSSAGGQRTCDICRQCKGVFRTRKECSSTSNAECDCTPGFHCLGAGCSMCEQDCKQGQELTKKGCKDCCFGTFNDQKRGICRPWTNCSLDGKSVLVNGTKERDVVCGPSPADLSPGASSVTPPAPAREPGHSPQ

`CCCC[C@@H]1NC(=O)[C@H](Cc2ccc(O)cc2)NC(=O)[C@@H]2CCCN2C(=O)[C@H](CC(=O)O)NC(=O)[C@H](C)NC(=O)[C@H](Cc2ccccc2)NC(=O)[C@@H]2CSCCC(=O)N3CN(CN(C3)C(=O)CCSC[C@@H](C(=O)N[C@@H](C)C(N)=O)NC1=O)C(=O)CCSC[C@H](NC(C)=O)C(=O)N[C@@H](CC(C)(C)C)C(=O)N1CCC[C@H]1C(=O)N[C@@H](CCC(=O)O)C(=O)N[C@H](CCCCNC(=O)CCc1cn(CCOCCOCCOCCN(CCOCCOCCOCCC(=O)N[C@H]3CSCCC(=O)N4CN5CN(C4)C(=O)CCSC[C@H](NC(=O)[C@@H](CC(=O)O)NC(=O)[C@H](Cc4cccc6ccccc46)NC(=O)[C@@H]4CCCN4C3=O)C(=O)N[C@@H](CCSC)C(=O)N[C@@H](CCCCNC(=N)N)C(=O)N[C@@H](CC(=O)O)C(=O)N[C@@H](Cc3c[nH]c4ccccc34)C(=O)N[C@@H](CO)C(=O)N[C@@H]([C@@H](C)O)C(=O)N3CCC[C@H]3C(=O)N3C[C@H](O)C[C@H]3C(=O)N[C@@H](Cc3c[nH]c4ccccc34)C(=O)N[C@H](C(N)=O)CSCCC5=O)CCOCCOCCOCCn3cc(CCC(=O)NCCCC[C@H]4NC(=O)[C@H](CCC(=O)O)NC(=O)[C@@H]5CCCN5C(=O)[C@H](CC(C)(C)C)NC(=O)[C@@H](NC(C)=O)CSCCC(=O)N5CN6CN(C5)C(=O)CCSC[C@H](NC(=O)[C@H](Cc5ccc(O)cc5)NC(=O)[C@@H]5CCCN5C4=O)C(=O)N[C@@H](Cc4ccccc4)C(=O)N[C@@H](C)C(=O)N[C@@H](CC(=O)O)C(=O)N4CCC[C@H]4C(=O)N[C@@H](Cc4ccc(O)cc4)C(=O)N[C@@H](CCCC)C(=O)N[C@H](C(=O)N[C@@H](C)C(N)=O)CSCCC6=O)nn3)nn1)C(=O)N1CCC[C@H]1C(=O)N[C@@H](Cc1ccc(O)cc1)C(=O)N2` [BCY11863]: in experiment [1], the Kd – broadly, a measure of binding affinity in units of concentration – is 25 ± 2 nM.

For “I: A[hArg]DC[Hyp]LVNPLCLEP[d1Nal]WTC-NH2 / II: Ac-C[tBuAla]PE[dK]PYCFADPY[Nle]CA-NH2 / III: Ac-C[tBuAla]PE[dK]PYCFADPY[Nle]CA-NH2 (linker I:4-I:11-I:18, II:1-II:8-II:15, III:1-III:8-III:15 via TATA; linker I:N-II:5-III:5 via X1) [BCY13272]”, the EC50 (in general, the concentration that produces a half-maximal response) in experiment [2] (co-culture with HT-29) was 0.567 nM and 0.187 nM and 0.205 nM; in experiment [2] (co-culture with PC-3), 0.0805 nM and 0.0898 nM and 0.245 nM. The “CD137 activation in CD137 reporter assay” value in experiment [2] (FIG. 16, PC3, A549 and HT29) is reported as “induces strong CD137 activation”. For the same compound, the Emax in experiment [2] (co-culture with A549) was 25.7 fold and 23.6 fold and 30.2 fold; in experiment [2] (co-culture with HT-29), 36.5 fold and 26 fold and 36.4 fold; in experiment [2] (co-culture with PC-3), 44.2 fold and 53 fold and 44.5 fold.

These data come from patent publication US20230129258A1, “HETEROTANDEM BICYCLIC PEPTIDE COMPLEXES” (BicycleTx Limited, priority 2019, published 2023).
